In BindingDB's records for doi:10.1016/j.bmcl.2007.06.058 (Mahidol University, 2007):

Test: Inhibition of rhFGF2-induced cellular proliferation of HUVEC

| IC50 [µM] | SMILES |
| --- | --- |
| 18.2 | COc1cc(OC)cc(-c2ccc3c(c2)NC(=O)/C3=C\c2[nH]c(C)c(CCC(=O)O)c2C)c1 [(Z)-3-(5-((6-(3,5-dimethoxyphenyl)-2-oxoindolin-3-ylidene)methyl)-2,4-dimethyl-1H-pyrrol-3-yl)propanoic acid] |
| 17.9 | COc1cccc(-c2ccc3c(c2)NC(=O)/C3=C\c2[nH]c(C)c(CCC(=O)O)c2C)c1 [3-(5-{[(3Z)-6-(3-methoxyphenyl)-2-oxo-2,3-dihydro-1H-indol-3-ylidene]methyl}-2,4-dimethyl-1H-pyrrol-3-yl)propanoic acid] |
| > 50 | Cc1[nH]c(/C=C2\C(=O)Nc3cc(-c4ccccc4)ccc32)c(C)c1CCC(=O)O |
